The supplement of paper PMC11061612

Assays:
[1] = compound: C1CC(C1)(C(=O)[O-])C(=O)[O-].N.N.[Pt+2] [Carboplatin]; details: max 10 µM
Method in brief: (§1)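 Cancer cell lines in 1536-well plates (7.5 μl DMEM/F12 or RPMI, 10% FBS) were held 24 hours at 37°C and 5% CO2 and then dosed for 72 hours at a final DMSO of typically 0.2%. Viability was taken from CellTiter-Glo 2.0 luminescence, scaled between blank-well and DMSO-well means. Curves were fitted as two-parameter logistic models with a non-linear mixed effects model, from which the single-agent IC50 was taken.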

[2] = compound: C1CN(CCC1(C(=O)N[C@@H](CCO)C2=CC=C(C=C2)Cl)N)C3=NC=NC4=C3C=CN4 [AZD5363]; details: max 10 µM
Method in brief: as §1

[3] = compound: C=CCn1c(=O)c2cnc(Nc3ccc(N4CCN(C)CC4)cc3)nc2n1-c1cccc(C(C)(C)O)n1 [AZD1775]; details: max 3 µM
Method in brief: as §1

[4] = compound: CC(=O)Nc1cccc(-n2c(=O)n(C3CC3)c(=O)c3c(Nc4ccc(I)cc4F)n(C)c(=O)c(C)c32)c1 [Trametinib]; details: max 1 µM
Method in brief: as §1

[5] = compound: CC(=O)O[C@H]1C(=O)[C@@]2(C)[C@H]([C@H](OC(=O)c3ccccc3)[C@]3(O)C[C@H](OC(=O)[C@H](O)[C@@H](NC(=O)c4ccccc4)c4ccccc4)C(C)=C1C3(C)C)[C@]1(OC(C)=O)CO[C@@H]1C[C@@H]2O [Paclitaxel]; details: max 3 µM
Method in brief: as §1

[6] = compound: CC(=O)c1c(C)c2cnc(Nc3ccc(N4CCNCC4)cn3)nc2n(C2CCCC2)c1=O [Palbociclib]; details: max 10 µM
Method in brief: as §1

[7] = compound: CC(C)n1c(=O)n(C)c2cnc3cc(F)c(-c4ccc(OCCCN5CCCCC5)nc4)cc3c21 [AZD1390]; details: max 0.3 µM
Method in brief: as §1

[8] = compound: CC1(C)CCC(CN2CCN(c3ccc(C(=O)NS(=O)(=O)c4ccc(NCC5CCOCC5)c([N+](=O)[O-])c4)c(Oc4cnc5[nH]ccc5c4)c3)CC2)=C(c2ccc(Cl)cc2)C1 [Venetoclax]; details: max 1 µM
Method in brief: as §1

[9] = compound: CC1=C(C(=CC=C1)Cl)NC(=O)C2=CN=C(S2)NC3=CC(=NC(=N3)C)N4CCN(CC4)CCO [Dasatinib]; details: max 2 µM
Method in brief: as §1

[10] = compound: CC1=CN2[C@@H](C1)C=NC3=CC(=C(C=C3C2=O)OC)OCCCCCOC4=C(C=C5C(=C4)N=C[C@@H]6CC(=CN6C5=O)C)OC [SG3199]; details: max 0.001 µM
Method in brief: as §1

[11] = compound: CCN(CCO)CCCOc1ccc2c(Nc3cc(CC(=O)Nc4cccc(F)c4)[nH]n3)ncnc2c1 [AZD2811]; details: max 1 µM
Method in brief: as §1

[12] = compound: CCc1c2c(nc3ccc(O)cc13)-c1cc3c(c(=O)n1C2)COC(=O)[C@]3(O)CC [SN-38]; details: max 0.3 µM
Method in brief: as §1

[13] = compound: CN(C)CCCOc1ccc(-c2ccc3ncc4c(c3c2)n(C2CCOCC2)c(=O)n4C)cn1 [AZD0156]; details: max 3 µM
Method in brief: as §1

[14] = compound: CN(CC[C@H](CSC1=CC=CC=C1)NC2=C(C=C(C=C2)S(=O)(=O)NC(=O)C3=CC=C(C=C3)N4CCC(CC4)[C@H](C5=CC=CC=C5C6=CC=C(C=C6)Cl)O)S(=O)(=O)C(F)(F)F)CCO [AZD4320]; details: max 1 µM
Method in brief: as §1

[15] = compound: COc1cc(Nc2ncc3c(n2)-c2ccc(Cl)cc2C(c2c(F)cccc2OC)=NC3)ccc1C(=O)O [Alisertib]; details: max 10 µM
Method in brief: as §1

[16] = compound: COc1cc([C@@H]2c3cc4c(cc3[C@@H](O[C@@H]3O[C@@H]5CO[C@@H](C)O[C@H]5[C@H](O)[C@H]3O)[C@H]3COC(=O)[C@H]23)OCO4)cc(OC)c1O [Etoposide]; details: max 10 µM
Method in brief: as §1

[17] = compound: COc1cc2ncnc(Nc3ccc(F)c(Cl)c3)c2cc1OCCCN1CCOCC1 [Gefitinib]; details: max 10 µM
Method in brief: as §1

[18] = compound: COc1cccc(OCCCN)c1-c1cc(Nc2cnc(C#N)cn2)n[nH]1 [Prexasertib]; details: max 1 µM
Method in brief: as §1

[19] = compound: COc1cccc2c1C(=O)c1c(O)c3c(c(O)c1C2=O)C[C@@](O)(C(=O)CO)C[C@@H]3O[C@H]1C[C@H](N)[C@H](O)[C@H](C)O1 [Doxorubicin]; details: max 1 µM
Method in brief: as §1

[20] = compound: COc1nnc2ccc(N3CCC(c4ccc(OCCN5CCN(C)C(=O)[C@H]5C)cc4)CC3)nn12 [AZD5153]; details: max 1 µM
Method in brief: as §1

[21] = compound: CS(=O)(=O)CCNCc1ccc(-c2ccc3ncnc(Nc4ccc(OCc5cccc(F)c5)c(Cl)c4)c3c2)o1 [Lapatinib]; details: max 10 µM
Method in brief: as §1

[22] = compound: C[C@@H](Nc1cc(F)cc(F)c1)c1cc(C(=O)N(C)C)cc2c(=O)cc(N3CCOCC3)oc12 [AZD8186]; details: max 10 µM
Method in brief: as §1

[23] = compound: C[C@@H](Oc1cc(-c2cnn(C3CCNCC3)c2)cnc1N)c1c(Cl)ccc(F)c1Cl [Crizotinib]; details: max 10 µM
Method in brief: as §1

[24] = compound: C[C@@H](c1ccc2nccn2c1)n1nnc2ncc(-c3cnn(C)c3)nc21 [Savolitinib]; details: max 1 µM
Method in brief: as §1

[25] = compound: C[C@@H]1COCCN1C2=NC(=NC(=C2)C3(CC3)[S@](=N)(=O)C)C4=C5C=CNC5=NC=C4 [AZD6738]; details: max 10 µM
Method in brief: as §1

[26] = compound: Cc1c2c(nn1C)CSCc1cc(n(C)n1)CSc1cc(c3ccccc3c1)OCCCc1c(C(=O)O)n(C)c3c-2c(Cl)ccc13 [AZD5991]; details: max 1 µM
Method in brief: as §1

[27] = compound: Cc1cc2ncnn2cc1Nc1ncc2c(n1)n(C1CCOCC1)c(=O)n2C [AZD7648]; details: max 10 µM
Method in brief: as §1

[28] = compound: Cc1nc(-c2cn3c(n2)-c2ccc(-c4cnn(C(C)(C)C(N)=O)c4)cc2OCC3)n(C(C)C)n1 [Taselisib]; details: max 10 µM
Method in brief: as §1

[29] = compound: Cn1cnc2c(F)c(Nc3ccc(Br)cc3Cl)c(C(=O)NOCCO)cc21 [Selumetinib]; details: max 10 µM
Method in brief: as §1

[30] = compound: N#Cc1cnc(Nc2cc(NC[C@H]3CNCCO3)c(C(F)(F)F)cn2)cn1 [SRA737]; details: max 10 µM
Method in brief: as §1

[31] = compound: NC1(c2ccc(-c3nc4ccn5c(=O)[nH]nc5c4cc3-c3ccccc3)cc2)CCC1 [MK-2206]; details: max 10 µM
Method in brief: as §1

[32] = compound: Nc1ccn([C@@H]2O[C@H](CO)[C@@H](O)C2(F)F)c(=O)n1 [Gemcitabine]; details: max 0.3 µM
Method in brief: as §1

[33] = compound: O=C(Nc1ccc2[nH]nc(-c3ccncc3)c2c1)[C@@H]1CCN(CC(=O)N2CCN(c3ccc(-c4ncccn4)cc3)CC2)C1; details: max 5 µM
Method in brief: as §1

[34] = compound: O=C(c1cc(Cc2n[nH]c(=O)c3ccccc23)ccc1F)N1CCN(C(=O)C2CC2)CC1 [Olaparib]; details: max 10 µM
Method in brief: as §1

[35] = compound: O=c1[nH]cc(F)c(=O)[nH]1 [5-Fluorouracil]; details: max 20 µM
Method in brief: as §1

Cell Line | IC50, cell viability 72 h [1] | IC50, cell viability 72 h [2] | IC50, cell viability 72 h [3] | IC50, cell viability 72 h [4] | IC50, cell viability 72 h [5] | IC50, cell viability 72 h [6] | IC50, cell viability 72 h [7] | IC50, cell viability 72 h [8] | IC50, cell viability 72 h [9] | IC50, cell viability 72 h [10] | IC50, cell viability 72 h [11] | IC50, cell viability 72 h [12] | IC50, cell viability 72 h [13] | IC50, cell viability 72 h [14] | IC50, cell viability 72 h [15] | IC50, cell viability 72 h [16] | IC50, cell viability 72 h [17] | IC50, cell viability 72 h [18] | IC50, cell viability 72 h [19] | IC50, cell viability 72 h [20] | IC50, cell viability 72 h [21] | IC50, cell viability 72 h [22] | IC50, cell viability 72 h [23] | IC50, cell viability 72 h [24] | IC50, cell viability 72 h [25] | IC50, cell viability 72 h [26] | IC50, cell viability 72 h [27] | IC50, cell viability 72 h [28] | IC50, cell viability 72 h [29] | IC50, cell viability 72 h [30] | IC50, cell viability 72 h [31] | IC50, cell viability 72 h [32] | IC50, cell viability 72 h [33] | IC50, cell viability 72 h [34] | IC50, cell viability 72 h [35]
NCI-H1581 (Non-Small Cell Lung Carcinoma) | > 10000 nM | > 10000 nM | 1770 nM | 545 nM | 3.82 nM | > 10000 nM | > 300 nM | > 1000 nM | > 2000 nM | > 1 nM | > 1000 nM | 79.5 nM | > 3000 nM | > 1000 nM | 2060 nM | 5320 nM | > 10000 nM | > 1000 nM | > 1000 nM | > 1000 nM | > 10000 nM | > 10000 nM | > 10000 nM | > 1000 nM | > 10000 nM | 163 nM | > 10000 nM | > 10000 nM | > 10000 nM | > 10000 nM | > 10000 nM | 195 nM | 3230 nM | > 10000 nM | > 20000 nM
NY (Osteosarcoma) | > 10000 nM | > 10000 nM | 538 nM | > 1000 nM | 7.26 nM | > 10000 nM | > 300 nM | > 1000 nM | > 2000 nM | > 1 nM | > 1000 nM | 16.1 nM | > 3000 nM | > 1000 nM | > 10000 nM | > 10000 nM | > 10000 nM | 115 nM | > 1000 nM | > 1000 nM | > 10000 nM | > 10000 nM | > 10000 nM | > 1000 nM | > 10000 nM | > 1000 nM | > 10000 nM | > 10000 nM | > 10000 nM | 3440 nM | > 10000 nM | 41 nM | > 5000 nM | > 10000 nM | > 20000 nM
U-2-OS (Osteosarcoma) | > 10000 nM | > 10000 nM | 1080 nM | 140 nM | 162 nM | > 10000 nM | > 300 nM | > 1000 nM | > 2000 nM | > 1 nM | > 1000 nM | > 300 nM | > 3000 nM | > 1000 nM | > 10000 nM | > 10000 nM | > 10000 nM | 17.4 nM | > 1000 nM | > 1000 nM | > 10000 nM | > 10000 nM | > 10000 nM | > 1000 nM | > 10000 nM | > 1000 nM | > 10000 nM | > 10000 nM | > 10000 nM | 5430 nM | > 10000 nM | > 300 nM | 2130 nM | > 10000 nM | > 20000 nM
PANC-10-05 (Pancreatic Carcinoma) | > 10000 nM | > 10000 nM | 1270 nM | 438 nM | 378 nM | > 10000 nM | > 300 nM | > 1000 nM | 1510 nM | > 1 nM | > 1000 nM | 59.5 nM | > 3000 nM | > 1000 nM | > 10000 nM | > 10000 nM | > 10000 nM | > 1000 nM | > 1000 nM | 732 nM | > 10000 nM | > 10000 nM | > 10000 nM | > 1000 nM | > 10000 nM | > 1000 nM | > 10000 nM | 7170 nM | > 10000 nM | > 10000 nM | > 10000 nM | > 300 nM | 3330 nM | > 10000 nM | > 20000 nM
TT (Thyroid Gland Carcinoma) | > 10000 nM | > 10000 nM | > 3000 nM | > 1000 nM | > 3000 nM | > 10000 nM | > 300 nM | > 1000 nM | > 2000 nM | > 1 nM | > 1000 nM | 68.8 nM | > 3000 nM | > 1000 nM | > 10000 nM | > 10000 nM | > 10000 nM | 249 nM | > 1000 nM | 808 nM | > 10000 nM | > 10000 nM | > 10000 nM | > 1000 nM | > 10000 nM | > 1000 nM | > 10000 nM | > 10000 nM | > 10000 nM | > 10000 nM | > 10000 nM | > 300 nM | > 5000 nM | > 10000 nM | > 20000 nM
